Measured values taken from PubChem BioAssay (NCI).
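Five concentrations, 48 hours, 96-well plates. GI50 is the concentration that inhibits growth by half. TGI is the concentration that stops growth completely.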

Key:
Assay in all cases: NCI-60 cell line screen, 48 h
[1] = tested on: M19-MEL melanoma
[2] = tested on: XF 498 CNS
[3] = tested on: LXFL 529 NSCLC
[4] = tested on: HOP-18 NSCLC
[5] = tested on: DLD-1 colon
[6] = tested on: RXF-631 renal
[7] = tested on: KM20L2 colon
[8] = tested on: DMS 273 small cell lung
[9] = tested on: MDA-N

| SMILES | TGI [1] [µM] | TGI [2] [µM] | TGI [3] [µM] | TGI [4] [µM] | TGI [5] [µM] | TGI [6] [µM] | TGI [7] [µM] | TGI [8] [µM] | further results |
| --- | --- | --- | --- | --- | --- | --- | --- | --- | --- |
| O=C(CC1SC(=Nc2ccccc2Cl)NC1=O)Nc1ccc(Cl)cc1Cl (centres undefined) | > 100 | > 100 | > 100 | > 100 | > 100 | > 100 | > 100 | – | – |
| CC1(c2ccccc2Cl)C(C#N)C(=O)NC(=O)C1C#N (centres undefined) | > 100 | – | > 100 | – | > 100 | – | > 100 | > 100 | – |
| O=S(=O)(/C=C/C(=C/c1ccccc1)S(=O)(=O)c1ccccc1)c1ccccc1 | – | 3.09 | 3.19 | – | – | 2.31 | – | 2.9 | – |
| O=c1[nH]cc(F)c(=O)n1C1OC(CO)C(O)C1O (centres undefined) | – | > 100 | > 100 | > 100 | > 100 | – | > 100 | > 100 | – |
| Cc1cc(N=Nc2ccccc2C)ccc1N | – | – | – | – | – | – | – | – | TGI [9]: 39.6 µM |
| COC1C(N)C(OC2C(Oc3cccc4c(O)c5c(=O)oc6ccc(C)c7c(=O)oc(c34)c5c67)OC(C)C(O)C2(C)O)OC(C)C1O (centres undefined) | 0.458 | 0.208 | 0.148 | 3.08 | 0.726 | 1.45 | 1.21 | 0.399 | TGI [9]: 0.541 µM |
| Cc1ccccc1NC(=O)C(=O)C(C#N)c1ccccc1C (centres undefined) | – | > 100 | > 100 | > 100 | > 100 | – | > 100 | > 100 | – |
| N#Cc1ccc(C=NC23CC4CC(CC(C4)C2)C3)cc1 | > 100 | – | – | – | – | > 100 | > 100 | > 100 | – |
| C[N+](C)(C)CC1CCCC1=O (centres undefined) | 5.52 | 3.87 | 2.57 | 3.3 | 3.15 | 32.1 | 7.79 | 19.9 | TGI [9]: 3.21 µM |
| CCOC(=O)/C(C#N)=C(O)/C(=C\c1ccc(Br)cc1)NC(=O)c1ccccc1 | > 100 | – | > 100 | > 100 | > 100 | > 100 | > 100 | > 100 | – |
| CC(C)=CC(=O)N(C)C1C2CN3CCC(O2)C13 (centres undefined) | > 100 | > 100 | > 100 | > 100 | > 100 | – | > 100 | > 100 | – |
| Cc1ccc(S(=O)(=O)N/N=C(/CC(=O)c2c(C)n([O-])c3ccccc3[n+]2=O)C(=O)Nc2ccccc2C)cc1 | > 100 | – | > 100 | > 100 | > 100 | – | > 100 | > 100 | – |
| CCCCCCCCCCCCC(Br)C(=O)NCC(N)=O (centres undefined) | 32.5 | 3.83 | 21.5 | 28.2 | 29.8 | 18.4 | 42.5 | 25 | – |
| O=C(O)CCC(=O)c1ccc2sc3ccccc3c2c1 | – | – | – | – | – | – | – | – | TGI [9]: > 100 µM |
| C=C1CCC2[C@@H](CCC3[C@]2(C)CCC[C@]3(C)C(=O)OC)C1CC=O (some centres undefined) | 33.8 | 28.6 | 30.1 | 29 | 42.9 | 37.2 | 35.7 | 40.7 | GI50 [6]: 20.9 µM |
| O=C(O)/C=C/c1nc2ccccc2c(=O)o1 | > 100 | – | > 100 | > 100 | > 100 | – | > 100 | > 100 | – |
| C=CNC(=O)NC(=O)CSc1nnc(-c2ccccc2NC(=O)C(F)(F)F)c(=O)[nH]1 | > 100 | > 100 | > 100 | – | 22.7 | – | – | > 100 | – |

| SMILES | TGI [1] [µM] | TGI [2] [µM] | TGI [3] [µM] | TGI [4] [µM] | TGI [5] [µM] | TGI [6] [µM] | TGI [7] [µM] | TGI [8] [µM] | further results |
| --- | --- | --- | --- | --- | --- | --- | --- | --- | --- |
| OCCNC1c2cc(Cl)ccc2-c2c(Cl)cc(Cl)cc21 (centres undefined) | – | – | – | – | – | – | – | – | TGI [9]: > 100 µM |
| C[CH2][Sn]([CH2]C)([O]C(=O)c1ccccc1OC)[O][Sn]([CH2]C)([CH2]C)[O]C(=O)c1ccccc1OC | > 100 | > 100 | 28.5 | > 100 | > 100 | – | > 100 | > 100 | GI50 [1]: > 100 µM; GI50 [2]: > 100 µM; GI50 [3]: 15.1 µM; GI50 [4]: > 100 µM; GI50 [5]: 50.2 µM; GI50 [8]: > 100 µM; GI50 [7]: > 100 µM |
| O=C1Nc2ccccc2N=CC1NC(=O)C(c1ccccc1)c1ccccc1 (centres undefined) | > 100 | – | > 100 | > 100 | > 100 | > 100 | > 100 | > 100 | – |
| Cc1cc(C)nc(NS(=O)(=O)c2ccc(Nc3c4ccccc4nc4c(C(=O)Nc5ccc(S(=O)(=O)N=C(N)N)cc5)cccc34)cc2)n1 | > 100 | – | – | > 100 | > 100 | > 100 | > 100 | > 100 | – |
| O=C(O)c1cccc(C(=O)O)c1S(=O)Cc1ccccc1 (centres undefined) | – | – | – | – | – | – | – | – | TGI [9]: > 100 µM |
| COc1ccc(-c2cc(C(=O)Nc3ccc(C)c(C)c3)nc(NC#N)n2)cc1 | > 100 | > 100 | > 100 | > 100 | > 100 | – | > 100 | > 100 | – |
| COCOCC/C=C/C=O | – | > 100 | > 100 | > 100 | > 100 | – | > 100 | – | – |
| CCCCC1(C)C=C/C(=C2/C(=O)O/C(=C\C(=O)O)C2=O)O1 (centres undefined) | > 100 | > 100 | > 100 | > 100 | – | > 100 | > 100 | > 100 | – |
| CCC1(O)C(=O)OCc2c1cc1n(c2=O)Cc2cc3c(NC(=O)CN)cccc3nc2-1 (centres undefined) | 14.1 | 25.4 | > 75 | > 24.3 | > 100 | – | – | 1.83 | GI50 [9]: 4.94 µM; TGI [9]: > 55.8 µM; GI50 [1]: 1.38 µM; GI50 [2]: 2.24 µM; GI50 [3]: 5.3 µM; GI50 [4]: 1.02 µM; GI50 [5]: 11.2 µM; GI50 [8]: 0.0963 µM; GI50 [7]: 1.77 µM |
| Cc1cc[n+]2c(c1)-c1cc(C)cc[n+]1CC2 | – | – | – | – | – | – | – | – | TGI [9]: > 100 µM |
| N#CC(c1ccccn1)c1nc2ccccc2[nH]1 (centres undefined) | > 100 | > 100 | > 100 | – | > 100 | – | – | – | – |
| Cc1nc(C(=O)O)c2ccccc2n1 | – | – | > 100 | – | > 100 | – | > 100 | > 100 | – |
| O=S(=O)(c1cccc(N=C=S)c1)c1cccc(N=C=S)c1 | – | – | 28.5 | – | 40.7 | – | > 100 | 40.6 | – |
| N#CC(C#N)c1ccc(C(=O)N2CCC[C@H]2CO)cc1 | > 100 | – | > 100 | > 100 | > 100 | > 100 | > 100 | > 100 | – |
| COCCNC(=O)C1C(=O)C(=O)N(CCOC)C1=O (centres undefined) | > 100 | – | > 100 | > 100 | > 100 | > 100 | > 100 | > 100 | – |
| OC(C#Cc1ccccc1)(c1ccccc1)c1ccccc1 | – | – | – | – | – | – | – | – | TGI [9]: 61.7 µM |
| Cc1ccc(C)c(N2C(=O)C(=O)C(c3nc4ccccc4s3)/C(=N/NC(=O)NN)C2=O)c1 (centres undefined) | > 100 | > 100 | > 100 | > 100 | > 100 | > 100 | > 100 | > 100 | – |
